Data: patent US20080269337A1, “Method for the enhancing biocidal activity” (priority 2007, published 2008)

What was measured:
[1] = test system: aqueous industrial systems; conditions: U.S. Pat. Nos. 5,607,597 and 5,736,056; cited from earlier work
[2] = test system: B. cereus ATCC14579; experiment: B. cereus in synthetic medium, serial dilution and plating; format: cell-based; conditions: 20 mg/l bistridecylsulfosuccinate with 1 or 2 mg/l isothiazolinone
Excerpt: The spore forming bacterium B. cereus is of particular concern because of its pathogenic properties. Most incidents of food poisoning attributed to the genus Bacillus are caused by B. cereus. B. cereus is a common concern in production of dairy products. There is particular concern about this organism in powered milk based products for infants. This is a concern not only to producers of these goods but also to the manufacturers of packaging and containers for such products. […] A culture of B. cereus ATCC14579 was treated with isothiazolinone alone and isothiazolinone with bistridecylsulfosuccinate One ml of bacteria from an overnight culture was used to innocculate shake flasks containing 50 mls of fresh synthetic medium. The synthetic medium (as described previously) was dosed with isothiazolinone at one or two mg/l concentration; or isothiazolinone in conjunction with 20 mg/l bistridecylsulfosuccinate. Cultures were maintained shaking at 37° C. then carried through serial dilution and plated at 3 and 5 hour time points.

[3] = test system: B. subtilus (ATCC23059); experiment: B. subtilus in synthetic medium, serial dilution and plating; format: cell-based
Description: By definition a potentiator compound will not, by itself, kill or inhibit the bacterial population. The non-toxicity of bistridecylsulfosuccinate to B. subtilus is illustrated in Table 4. One ml of bacteria from an overnight culture was used to innocculate shake flasks containing 50 mls of fresh synthetic medium. The synthetic medium (as described previously) was augmented with increasing amounts of bistridecylsulfosuccinate. Serial dilution and plating was carried out to compare the efficacy of each treatment. The culture of B. subtilus was grown in the presence of 0, 5, 10, and 20 mg/l bistridecylsulfosuccinate (Btdss). Plating was carried out at 2.5 hours and 5 hours of incubation. […] The control had no treatment.

Row | Molecule | Effect on efficacy of isothiazolinone [1] | Effect on efficacy of isothiazolinone against B. cereus [2] | B. subtilus count in synthetic medium ([3]; 5 mg/l Btdss alone, 2.4 Hour) | B. subtilus count in synthetic medium ([3]; 5 mg/l Btdss alone, 5 Hour) | B. subtilus count in synthetic medium ([3]; 10 mg/l Btdss alone, 2.4 Hour) | B. subtilus count in synthetic medium ([3]; 10 mg/l Btdss alone, 5 Hour) | B. subtilus count in synthetic medium ([3]; 20 mg/l Btdss alone, 2.4 Hour) | B. subtilus count in synthetic medium ([3]; 20 mg/l Btdss alone, 5 Hour) | Growth of treated cultures relative to the untreated control ([3]; 5, 10, and 20 mg/l bistridecylsulfosuccinate alone) | Toxicity to B. subtilus ([3]; alone, at concentrations at least as high as 20 mg/l)
1 | CCCCC(CC)COC(=O)CC(C(=O)OCC(CC)CCCC)S(=O)(=O)O (stereo not drawn) [dioctyl, dioctylsulfosuccinate] | enhance the efficacy of isothiazolinone | – | – | – | – | – | – | – | – | –
2 | bistridecylsulfosuccinate [Btdss] | loss of efficacy | greatly enhanced the efficacy of isothiazolinone | 3.40 × 10^6 | 4.00 × 10^6 | 2.8 × 10^6 | 3.90 × 10^7 | 3.00 × 10^6 | 3.6 × 10^7 | increased growth relative to the untreated control | non-toxic
3 | dinonylsulfosuccinates | enhance the efficacy of isothiazolinone | – | – | – | – | – | – | – | – | –
